Test results published in EP0066934A1, “Nitrofurantoin salts, their preparation and their use” ("PHARLYSE", Société Anonyme, priority 1981, dated 1982).

Tests used:
in vivo = conditions: po, dose létale pour 50% des animaux
Text: La toxicité de la nitrofurantoïne est connue pour donner des résultats variables suivant les caractéristiques du produit utilisé, notamment la taille des cristaux.

[1] = water, 25°C; cited from earlier work
[2] = aqueous solution; cited from earlier work
[3] = 10% solution in water
Method: On refroidit à O°C une solution de 11,68 g de lysine base dans 190 ml d'eau. A cette solution limpide, on ajoute par petites portions et sous agitation 10,47 g de nitrofurantoïne. Quelques minutes après la fin de l'addition, la solution est filtrée, congelée et lyophilisée.

Solubility in water = type: physicochemical
Text: La nitrofurantoïne ou N-(5-nitro-2-fur furylidène)-1-aminohydantoïne est un médicament, bien connu, utilisé notamment comme agent antiseptique des voies urinaires. […] Afin de pallier à cet inconvénient, différentes formes cristallines ont été développées avec peu de succès. Des sels de métaux alcalins de nitrofurantoine ont également été réalisés mais ceux-ci, bien que solubles, présentent l'inconvénient d'apporter avec eux, des ions alcalins qui sont souvent contre- indiqués, notamment lors des traitements au long cours chez les sujets soumis à un régime désodé.

O=C1CN(N=Cc2ccc([N+](=O)[O-])o2)C(=O)N1 [Exemple 2]
LD50 (in vivo; mouse): 960 mg/kg | LD50 (in vivo; mouse, en nitrofurantoïne pure): 530 mg/kg | LD50 (in vivo; rat): 1910 mg/kg | LD50 (in vivo; rat, en nitrofurantoine pure): 1050 mg/kg

O=C1CN(/N=C/c2ccc([N+](=O)[O-])o2)C(=O)N1 [nitrofurantoïne, N-(5-nitro-2-furfurylidène)-1-aminohydantoïne]
soluble dans l'eau [1]: 19 mg/100 ml | pKa en solution aqueuse [2]: ~7,2

O=C1CN(N=Cc2ccc([N+](=O)[O-])o2)C(=O)N1 [Exemple 1]
pH d'une solution à 10% dans l'eau [3]: 8,9 - 9,5 | solubility (Solubility in water; 20°C, read-out: solubilité dans l'eau à 20°C): > 300 mg/mL | solubilité dans l'eau (result in words) (Solubility in water; qualitative): instantanément soluble dans l'eau
